Drawing on patent US12479840B2, “HMG-CoA reductase degradation inducing compound” (Uppthera, priority 2020, dated 2025), this text covers DC50 for 11 molecules.

The DC50 is the midpoint of the concentration-degradation curve.

For one experiment, the target named is T1, HMG-CoA reductase (Homo sapiens, UniProt P04035).
T1 construct: endogenous in cells; host or cells: HepG2 (Korea Cell Line Bank)
T1 sequence (P04035 1-888): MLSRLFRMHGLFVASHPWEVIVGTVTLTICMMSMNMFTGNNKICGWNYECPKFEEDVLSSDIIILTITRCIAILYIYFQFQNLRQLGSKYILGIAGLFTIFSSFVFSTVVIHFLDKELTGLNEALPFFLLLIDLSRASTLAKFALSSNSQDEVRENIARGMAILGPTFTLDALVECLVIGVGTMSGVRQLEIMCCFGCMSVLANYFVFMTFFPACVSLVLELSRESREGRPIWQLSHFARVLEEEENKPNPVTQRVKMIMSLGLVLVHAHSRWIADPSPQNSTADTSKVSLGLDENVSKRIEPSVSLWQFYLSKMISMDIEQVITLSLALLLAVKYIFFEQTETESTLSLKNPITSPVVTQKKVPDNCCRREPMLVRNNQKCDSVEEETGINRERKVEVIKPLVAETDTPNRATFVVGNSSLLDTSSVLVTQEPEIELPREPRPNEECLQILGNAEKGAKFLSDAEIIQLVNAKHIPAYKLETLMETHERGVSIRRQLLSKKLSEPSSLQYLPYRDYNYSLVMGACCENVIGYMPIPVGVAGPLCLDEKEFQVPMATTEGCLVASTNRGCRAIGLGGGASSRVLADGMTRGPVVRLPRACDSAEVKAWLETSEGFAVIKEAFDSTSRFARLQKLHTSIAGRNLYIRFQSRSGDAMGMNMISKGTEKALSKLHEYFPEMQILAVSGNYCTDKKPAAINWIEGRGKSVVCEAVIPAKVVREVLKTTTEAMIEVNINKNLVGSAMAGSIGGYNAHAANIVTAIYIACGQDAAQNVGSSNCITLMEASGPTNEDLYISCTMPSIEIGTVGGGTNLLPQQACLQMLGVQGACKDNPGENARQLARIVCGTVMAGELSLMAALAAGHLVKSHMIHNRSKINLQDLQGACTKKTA
Nature of the experiment: HMG-CoA reductase (HMGCR) degradation in HepG2 cells by western blotting. The class given is cell-based. To be noted: treated for 18 hours, ratio of HMG-CoA reductase to GAPDH. Summed up: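 HepG2 cells (passage P105–P110) treated 18 hours with compounds in 10-point three-fold dilutions from 3 μM. RIPA lysates (15 μg protein, BCA-quantified) run on SDS-PAGE and immunoblotted for HMGCR (1:500) with GAPDH (1:20000) as loading control, primary antibodies 16 hours at 4° C.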
For orientation: Immunoblotting shows a protein as a band on a membrane.
As to `Cc1ncsc1-c1ccc(CNC(=O)[C@@H]2C[C@@H](O)CN2C(=O)[C@@H](NC(=O)C2(F)CC2)C(C)(C)C)c(OCCOCCOCCNC(=O)O[C@H]2C[C@@H](C)C=C3C=C[C@H](C)[C@H](CC[C@@H]4C[C@@H](O[Si](C)(C)C(C)(C)C)CC(=O)O4)[C@H]32)c1` [Compound 28, (1S,3R,7S,8S,8aR)-8-(2-((2R,4R)-4-((tert-butyldimethylsilyl)oxy)-6-oxotetrahydro-2H-pyran-2-yl)ethyl)-3,7-dimethyl-1,2,3,7,8,8a-hexahydronaphthalen-1-yl (2-(2-(2-(2-(((2S,4R)-1-((S)-2-(1-fluorocyclopropane-1-carboxamido)-3,3-dimethylbutanoyl)-4-hydroxypyrrolidine-2-carboxamido)methyl)-5-(4-methylthiazol-5-yl)phenoxy)ethoxy)ethoxy)ethyl)carbamate], the 50% degradation concentration (DC50) is less than 0.05 µM.

The same experiment, now with this note: treated for 18 hours, ratio of HMG-CoA reductase to GAPDH, read-out: DC50.
Regarding `C[C@H]1C=C2C=C[C@H](C)[C@H](CC[C@@H]3C[C@@H](O[Si](C)(C)C(C)(C)C)CC(=O)O3)[C@H]2[C@@H](OC(=O)NCCOCCOCCCNc2cccc3c2C(=O)N(C2CCC(=O)NC2=O)C3=O)C1` (stereo partly drawn) [Compound 92, (1S,3R,7S,8S,8aR)-8-(2-((2R,4R)-4-((tert-butyldimethylsilyl)oxy)-6-oxotetrahydro-2H-pyran-2-yl)ethyl)-3,7-dimethyl-1,2,3,7,8,8a-hexahydronaphthalen-1-yl (2-(2-(3-((2-(2,6-dioxopiperidin-3-yl)-1,3-dioxoisoindolin-4-yl)amino)propoxy)ethoxy)ethyl)carbamate], the DC50 is less than 0.05 µM.

Consider `CN[C@@H](C)C(=O)N[C@H](C(=O)N1CCC[C@@H]1c1nc(C(=O)c2cccc(OCCOCCOCCNC(=O)O[C@H]3C[C@@H](C)C=C4C=C[C@H](C)[C@H](CC[C@@H]5C[C@@H](O)CC(=O)O5)[C@H]43)c2)cs1)C1CCCCC1` [Compound 34, (1S,3R,7S,8S,8aR)-8-(2-((2R,4R)-4-hydroxy-6-oxotetrahydro-2H-pyran-2-yl)ethyl)-3,7-dimethyl-1,2,3,7,8,8a-hexahydronaphthalen-1-yl (2-(2-(2-(3-(2-((R)-1-((S)-2-cyclohexyl-2-((S)-2-(methylamino)propanamido)acetyl)pyrrolidin-2-yl)thiazole-4-carbonyl)phenoxy)ethoxy)ethoxy)ethyl)carbamate], for which the DC50 was greater than 0.5 µM.

In the case of `C[C@H]1C=C2C=C[C@H](C)[C@H](CC[C@@H]3C[C@@H](O)CC(=O)O3)[C@H]2[C@@H](OC(=O)NCCCCCCCCCCNc2cccc3c2C(=O)N(C2CCC(=O)NC2=O)C3=O)C1` (stereo partly drawn) [Compound 63, (1S,3R,7S,8S,8aR)-8-(2-((2R,4R)-4-hydroxy-6-oxotetrahydro-2H-pyran-2-yl)ethyl)-3,7-dimethyl-1,2,3,7,8,8a-hexahydronaphthalen-1-yl (10-((2-(2,6-dioxopiperidin-3-yl)-1,3-dioxoisoindolin-4-yl)amino)decyl)carbamate], the DC50 was less than 0.05 µM.

For the molecule `CN[C@@H](C)C(=O)N[C@H](C(=O)N1CCC[C@H]1c1nc(C(=O)c2cccc(OCCOCCOCCNC(=O)O[C@H]3C[C@@H](C)C=C4C=C[C@H](C)[C@H](CC[C@@H]5C[C@@H](O[Si](C)(C)C(C)(C)C)CC(=O)O5)[C@H]43)c2)cs1)C1CCCCC1` [Compound 36, (1S,3R,7S,8S,8aR)-8-(2-((2R,4R)-4-((tert-butyldimethylsilyl)oxy)-6-oxotetrahydro-2H-pyran-2-yl)ethyl)-3,7-dimethyl-1,2,3,7,8,8a-hexahydronaphthalen-1-yl (2-(2-(2-(3-(2-((S)-1-((S)-2-cyclohexyl-2-((S)-2-(methylamino)propanamido)acetyl)pyrrolidin-2-yl)thiazole-4-carbonyl)phenoxy)ethoxy)ethoxy)ethyl)carbamate], the 50% degradation concentration (DC50) is less than 0.05 µM.

Consider `C[C@H]1C=C2C=C[C@H](C)[C@H](CC[C@@H]3C[C@@H](O[Si](C)(C)C(C)(C)C)CC(=O)O3)[C@H]2[C@@H](OC(=O)NCCOCCOCC(=O)Nc2cccc3c2C(=O)N(C2CCC(=O)NC2=O)C3=O)C1` (stereo partly drawn) [Compound 142, (1S,3R,7S,8S,8aR)-8-(2-((2R,4R)-4-((tert-butyldimethylsilyl)oxy)-6-oxotetrahydro-2H-pyran-2-yl)ethyl)-3,7-dimethyl-1,2,3,7,8,8a-hexahydronaphthalen-1-yl (2-(2-(2-((2-(2,6-dioxopiperidin-3-yl)-1,3-dioxoisoindolin-4-yl)amino)-2-oxoethoxy)ethoxy)ethyl)carbamate], for which the DC50 lay within 0.05 to 0.5 µM.

Take `Cc1ncsc1-c1ccc(CNC(=O)[C@@H]2C[C@@H](O)CN2C(=O)[C@@H](NC(=O)COCCOCCOCCOCCOCCNC(=O)CCC(C)(C)C(=O)O[C@H]2C[C@@H](C)C=C3C=C[C@H](C)[C@H](CC[C@@H]4C[C@@H](O)CC(=O)O4)[C@H]32)C(C)(C)C)cc1` [Compound 12, (S)-(1S,3R,7S,8S,8aR)-8-(2-((2R,4R)-4-hydroxy-6-oxotetrahydro-2H-pyran-2-yl)ethyl)-3,7-dimethyl-1,2,3,7,8,8a-hexahydronaphthalen-1-yl 3-((2S,4R)-4-hydroxy-2-((4-(4-methylthiazol-5-yl)benzyl)carbamoyl)pyrrolidine-1-carbonyl)-2,2,26,26-tetramethyl-5,23-dioxo-7,10,13,16,19-pentaoxa-4,22-diazaheptacosan-27-oate]: the DC50 is less than 0.05 µM.

As to `C[C@H]1C=C2C=C[C@H](C)[C@H](CC[C@@H]3C[C@@H](O)CC(=O)O3)[C@H]2[C@@H](OC(=O)N2CCC(CCOCCNc3cccc4c3C(=O)N(C3CCC(=O)NC3=O)C4=O)CC2)C1` (stereo partly drawn) [Compound 85, (1S,3R,7S,8S,8aR)-8-(2-((2R,4R)-4-hydroxy-6-oxotetrahydro-2H-pyran-2-yl)ethyl)-3,7-dimethyl-1,2,3,7,8,8a-hexahydronaphthalen-1-yl4-(2-(2-((2-(2,6-dioxopiperidin-3-yl)-1,3-dioxoisoindolin-4-yl)amino)ethoxy)ethyl)piperidine-1-carboxylate], the DC50 was less than 0.05 µM.

Turning to `C[C@H]1C=C2C=C[C@H](C)[C@H](CC[C@@H]3C[C@@H](O)CC(=O)O3)[C@H]2[C@@H](OC(=O)NCCOCCOCC(=O)Nc2cccc3c2C(=O)N(C2CCC(=O)NC2=O)C3=O)C1` (stereo partly drawn) [Compound 143, (1S,3R,7S,8S,8aR)-8-(2-((2R,4R)-4-hydroxy-6-oxotetrahydro-2H-pyran-2-yl)ethyl)-3,7-dimethyl-1,2,3,7,8,8a-hexahydronaphthalen-1-yl (2-(2-(2-((2-(2,6-dioxopiperidin-3-yl)-1,3-dioxoisoindolin-4-yl)amino)-2-oxoethoxy)ethoxy)ethyl)carbamate], the DC50 is less than 0.05 µM.

With `C[C@H]1C=C2C=C[C@H](C)[C@H](CC[C@@H]3C[C@@H](O[Si](C)(C)C(C)(C)C)CC(=O)O3)[C@H]2[C@@H](OC(=O)NCCOCCNC(=O)COc2cccc3c2C(=O)N(C2CCC(=O)NC2=O)C3=O)C1` (stereo partly drawn) [Compound 128, (1S,3R,7S,8S,8aR)-8-(2-((2R,4R)-4-((tert-butyldimethylsilyl)oxy)-6-oxotetrahydro-2H-pyran-2-yl)ethyl)-3,7-dimethyl-1,2,3,7,8,8a-hexahydronaphthalen-1-yl (2-(2-(2-((2-(2,6-dioxopiperidin-3-yl)-1,3-dioxoisoindolin-4-yl)oxy)acetamido)ethoxy)ethyl)carbamate], the half-maximal degradation concentration (DC50) is less than 0.05 µM.

Take `Cc1ncsc1-c1ccc(CNC(=O)[C@@H]2C[C@@H](O)CN2C(=O)[C@@H](NC(=O)C2(F)CC2)C(C)(C)C)c(OCCCCCCCCCNC(=O)O[C@H]2C[C@@H](C)C=C3C=C[C@H](C)[C@H](CC[C@@H]4C[C@@H](O)CC(=O)O4)[C@H]32)c1` [Compound 166, (1S,3R,7S,8S,8aR)-8-(2-((2R,4R)-4-hydroxy-6-oxotetrahydro-2H-pyran-2-yl)ethyl)-3,7-dimethyl-1,2,3,7,8,8a-hexahydronaphthalen-1-yl (9-(2-(((2S,4R)-1-((S)-2-(1-fluorocyclopropane-1-carboxamido)-3,3-dimethylbutanoyl)-4-hydroxypyrrolidine-2-carboxamido)methyl)-5-(4-methylthiazol-5-yl)phenoxy)nonyl)carbamate]: the 50% degradation concentration (DC50) was less than 0.05 µM.
